What is called Ki is a dissociation constant, usually derived from enzyme kinetics or from competition with a known ligand.

One assay concerns the target T1, hCA I (Homo sapiens, UniProt P00915).
T1 construct: made in house
Nature of the assay: stopped-flow CO2 hydrase assay, hCA I. Format: biochemical.

A further assay has as its target T2, hCA XII (Homo sapiens, UniProt O43570).
T2 construct: made in house
Kind of assay: stopped-flow CO2 hydrase assay, hCA XII. Format: biochemical.

In another assay the test system is intraocular pressure. Kind of assay: intraocular pressure (IOP) lowering in normotensive rabbits. The settings on record: 1% eye drop, normotensive New Zealand White rabbits, n = 6, tested twice; comparable to 1 (dorzolamide, 2% eye drops). Format: in vivo.
Another assay has as its target T3, hCA II (Homo sapiens, UniProt P00918).
T3 construct: made in house
Kind of assay: stopped-flow CO2 hydrase assay, hCA II. Format: biochemical.

Another assay concerns the target T4, hCA IV (Homo sapiens, UniProt P22748).
T4 construct: made in house
Kind of assay: stopped-flow CO2 hydrase assay, hCA IV. Format: biochemical.

Like-named read-outs stand apart in the source and are kept apart here.

T4 sequence (P22748 19-312): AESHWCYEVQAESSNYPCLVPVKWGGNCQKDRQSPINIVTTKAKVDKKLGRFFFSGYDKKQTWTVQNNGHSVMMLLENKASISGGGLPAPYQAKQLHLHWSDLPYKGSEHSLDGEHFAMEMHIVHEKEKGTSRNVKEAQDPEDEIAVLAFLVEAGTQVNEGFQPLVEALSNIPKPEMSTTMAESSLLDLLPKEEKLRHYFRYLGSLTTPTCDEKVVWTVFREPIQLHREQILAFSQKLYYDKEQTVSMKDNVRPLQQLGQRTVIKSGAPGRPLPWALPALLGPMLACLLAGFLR
T2 sequence (O43570 25-354): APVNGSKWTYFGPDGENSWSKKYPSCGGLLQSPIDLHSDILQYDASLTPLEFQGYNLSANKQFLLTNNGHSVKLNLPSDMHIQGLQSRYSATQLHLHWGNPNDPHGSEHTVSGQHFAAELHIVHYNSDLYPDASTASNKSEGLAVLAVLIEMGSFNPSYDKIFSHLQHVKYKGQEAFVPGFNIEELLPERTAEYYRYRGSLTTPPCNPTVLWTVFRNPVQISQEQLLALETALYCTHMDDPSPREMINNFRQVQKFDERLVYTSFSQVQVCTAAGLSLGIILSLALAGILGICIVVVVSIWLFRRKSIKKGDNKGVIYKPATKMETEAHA
T1 sequence (P00915 whole entry): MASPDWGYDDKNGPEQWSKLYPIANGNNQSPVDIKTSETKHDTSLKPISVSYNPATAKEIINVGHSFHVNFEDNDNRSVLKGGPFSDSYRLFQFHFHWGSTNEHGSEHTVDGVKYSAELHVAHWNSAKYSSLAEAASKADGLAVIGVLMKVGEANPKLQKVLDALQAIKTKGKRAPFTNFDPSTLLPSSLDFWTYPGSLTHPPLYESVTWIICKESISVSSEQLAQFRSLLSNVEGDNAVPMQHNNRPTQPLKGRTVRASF

Regarding `NCCNC(=O)c1ncc(-c2ccc(S(N)(=O)=O)s2)o1` [7d], the Ki was 72.9 nM at hCA I and 9.3 nM on hCA XII.
Take `NS(=O)(=O)c1ccc(-c2cnc(C(=O)N3CCNCC3)o2)s1` [7a]: the inhibition constant Ki amounted to 4 nM on hCA I, 3.9 nM at hCA XII, 0.069 nM at hCA II and 21.6 nM at hCA IV. Moreover, the IOP lowering effect result with intraocular pressure was “clear IOP lowering effect”.
On to `NC1CCN(C(=O)c2ncc(-c3ccc(S(N)(=O)=O)s3)o2)CC1` [7c], for which the inhibition constant (Ki) at hCA I amounted to 31.3 nM; at hCA XII it was 5.7 nM; at hCA II, 0.41 nM; on hCA IV, 30.6 nM.
Regarding `NCCCNC(=O)c1ncc(-c2ccc(S(N)(=O)=O)s2)o1` [7e], the Ki on hCA I (mean from three assays by stopped flow technique, errors ± 5–10%, read-out: Ki hCA I) was 58.3 nM; at hCA XII (mean from three assays by stopped flow technique, errors ± 5–10%, read-out: Ki hCA XII), 8.8 nM; on hCA II (mean from three assays by stopped flow technique, errors ± 5–10%, read-out: Ki hCA II) it was 3.1 nM; on hCA IV (mean from three assays by stopped flow technique, errors ± 5–10%, read-out: Ki hCA IV), 4.6 nM.
With `NS(=O)(=O)c1ccc(-c2cnc(C(=O)NC3CCNCC3)o2)s1` [7b], the Ki on hCA I was found to be 56.8 nM; on hCA XII, 8.9 nM.

For the origin of these results see article PMC8973362, “5-(Sulfamoyl)thien-2-yl 1,3-oxazole inhibitors of carbonic anhydrase II with hydrophilic periphery” (Journal of Enzyme Inhibition and Medicinal Chemistry, 2022).
